From US11083718B2, “Betahistine, or a pharmaceutically acceptable salt thereof, and a monoamine oxidase inhibitor, for use in the treatment or prevention of one or more symptoms of vertigo in a subject” (INTRABIO LTD, priority 2017, dated 2021)
Several values for one entry are separate records, joined by “and”; a condition that tells them apart may be missing. Identical values can stand only once.

Tests used:
[1] = cited from earlier work
[2] = system: acute attacks of vertigo in patients with Menière's disease; test: Observational study: high-dosage betahistine monotherapy versus lower-dosage betahistine plus selegiline; assay type: in vivo, human
Procedure: Betahistine dihydrochloride tablets were obtained from Abbott (Vasomotol 24 mg tablets). Selegiline hydrochloride tablets were obtained from Hexal.
Studies by the Applicant investigated the benefits of a high-dosage betahistine monotherapy compared with those of a lower dosage of betahistine in combination with the MAO B inhibitor (MAO-B) selegiline on the frequency of acute attacks of vertigo in patients with Menière's disease (MD).
More specifically, studies investigated the effect of combination therapy in 13 subjects receiving 5 mg per day selegiline hydrochloride (either as one tablet at night, or half a tablet in the morning and half a tablet at night), in conjunction with varying amounts of betahistine dihydrochloride per day (amounts ranging from n=3 to 36, where n is the number of 24 mg tablets per day). All subjects had previously received treatment with betahistine dihydrochloride monotherapy (in amounts ranging from n=9 to 80, where n is the number of 24 mg tablets per day), and the number of vertigo attacks per month were recorded during a three month period of monotherapy prior to commencement of combination treatment. Following combination treatment, the subjects then recorded the number of vertigo attacks per month during the last two months of combination treatment.
The 13 patients in this observational study fulfilled the current diagnostic criteria of MD [48]. Patients with the diagnosis of other peripheral or central vestibular disorders, such as vestibular migraine, benign paroxysmal positional vertigo, paroxysmal brainstem attacks, or functional dizziness, were not included. Patients suffering from known contraindications or hypersensitivity to betahistine, such as bronchial asthma, pheochromocytoma, or treatment with other antihistaminic drugs, ulcer of the stomach or duodendum, or severe dysfunction of liver or kidney were also not treated with betahistine. Patients with known contraindications (e.g., use of meperidine or other opioids, tricyclic antidepressants or non-selective MAOls, selective serotonin re-uptake inhibitors) or hypersensitivity to selegiline were not treated with this agent.
Based on the results of the BEMED trial (showing that betahistine 48 mg tid is evidently not effective) the study initially started with a dosage of 96 mg tid in all patients. During the three- to six-monthly follow-up examinations the daily dosages were adjusted according to the patient's response (approach: “titration” of attacks of vertigo). Patients had been treated for at least 18 months with high dosages of betahistine-dihydrochloride and had ≤1 attacks for at least three months. An initial dosage of 5 mg/day selegiline hydrochloride was chosen (approved dosage for Parkinson's disease is 5 to 10 mg/d). In parallel the dosage of betahistine was reduced to about a tenth of the initial dosage. The design of the observational study was approved by the local ethics committee. Follow-up examinations were after 1 month and then every 3 months to check the efficacy of the treatment and the side-effects and to adjust the betahistine dosage if necessary. Ideally, the objective was to achieve ≤1 attack per three months.

[3] = system: vertigo episodes related to Menière's disease; conditions: daily doses 2×24 mg or 3×48 mg; nine months; cited from earlier work

- patients with fullness of the stomach ([2]; 216 to 1920 mg per day, 13 patients): 4 patients
Compound: CNCCc1ccccn1 [betahistine, 2-[2-(methylamino)ethyl]pyridine]
- plasma concentrations ([1]; betahistine without MAO inhibitor): less than 0.5 ng/ml
- first-pass effect ([1]; normally almost complete): 99%
- daily betahistine-dihydrochloride dosage required to achieve a treatment response, mean ([2]; 13 patients): 895.4 mg/day
- daily betahistine-dihydrochloride dosage required to achieve a treatment response, mean in tablets ([2]; 13 patients): 37.3 24-mg tablets per day
- mean daily dosage of betahistine-dihydrochloride to respond to treatment (≤1 attack per three months), FIG. 1 ([2]; 13 patients, per day): 895.4 mg
- tolerability ([2]; 216 to 1920 mg per day): well tolerated
- Dosage of betahistine (monotherapy) required that the patient had a significant effect before the combined treatment ([2]; individual patients 1-13 with Menière's disease, tablets per day): 80 n of 24-mg tablets and 30 n of 24-mg tablets (3×) and 9 n of 24-mg tablets and 36 n of 24-mg tablets and 60 n of 24-mg tablets (2×) and 24 n of 24-mg tablets and 18 n of 24-mg tablets (2×) and 50 n of 24-mg tablets and 40 n of 24-mg tablets
- effect on time course of vertigo episodes compared with placebo [3]: does not change the time course of vertigo episodes
